Test results from PubChem BioAssay AID1745844 (Carcinogenic Potency Database (CPDB), 2022).
The source made the active and inactive calls. How the calls were made is not given here.

System: rodent lifetime carcinogenesis bioassay, tumor incidence TD50
Assay: carcinogenic potency in animals, long-term in vivo studies, CPDB compilation (AID 1745844)

O=[N+]([O-])c1ccc(-c2cnc3ccccn23)o1
inactive: carcinogen call (mouse, strain CTM, females, in feed, site: liver, lesion: hepatoma, dosed 40 weeks, study length 79 weeks) negative | carcinogen call (mouse, strain CTM, females, in feed, site: lung, lesion: one or several types, types not named, dosed 40 weeks, study length 79 weeks) negative | carcinogen call (mouse, strain CTM, males, in feed, site: liver, lesion: hepatoma, dosed 40 weeks, study length 73 weeks) negative | TD50 (mouse, strain CTM, males, in feed, site: lung, lesion: one or several types, types not named, dosed 40 weeks, study length 73 weeks) 763 mg/kg/day
active: carcinogen call (mouse, strain CTM, females, in feed, site: any site (literature study), lesion: several types, types named in the paper, dosed 40 weeks, study length 79 weeks) positive | TD50 (mouse, strain CTM, females, in feed, site: several sites, sites named in the paper, lesion: carcinoma, dosed 40 weeks, study length 79 weeks) 21.6 mg/kg/day | TD50 (mouse, strain CTM, females, in feed, site: several sites, sites named in the paper, lesion: papilloma, dosed 40 weeks, study length 79 weeks) 117 mg/kg/day | TD50 (mouse, strain CTM, males, in feed, site: any site (literature study), lesion: several types, types named in the paper, dosed 40 weeks, study length 73 weeks) 57.1 mg/kg/day | TD50 (mouse, strain CTM, males, in feed, site: several sites, sites named in the paper, lesion: carcinoma, dosed 40 weeks, study length 73 weeks) 40.1 mg/kg/day | TD50 (mouse, strain CTM, males, in feed, site: several sites, sites named in the paper, lesion: papilloma, dosed 40 weeks, study length 73 weeks) 65.8 mg/kg/day | TD50 (rat, strain Wistar, females, in feed, site: any site (literature study), lesion: several types, types named in the paper, dosed 40 weeks, study length 89 weeks) 15.8 mg/kg/day | TD50 (rat, strain Wistar, females, in feed, site: kidney, lesion: one or several types, types not named, dosed 40 weeks, study length 89 weeks) 116 mg/kg/day | TD50 (rat, strain Wistar, females, in feed, site: mammary tissue, wider than the gland, lesion: one or several types, types not named, dosed 40 weeks, study length 89 weeks) 33.3 mg/kg/day | TD50 (rat, strain Wistar, females, in feed, site: several sites, sites named in the paper, lesion: carcinoma, dosed 40 weeks, study length 89 weeks) 443 mg/kg/day | TD50 (rat, strain Wistar, females, in feed, site: several sites, sites named in the paper, lesion: papilloma, dosed 40 weeks, study length 89 weeks) 27.5 mg/kg/day | TD50 (rat, strain Wistar, males, in feed, site: any site (literature study), lesion: several types, types named in the paper, dosed 40 weeks, study length 83 weeks) 11.9 mg/kg/day | TD50 (rat, strain Wistar, males, in feed, site: kidney, lesion: one or several types, types not named, dosed 40 weeks, study length 83 weeks) 21.4 mg/kg/day | TD50 (rat, strain Wistar, males, in feed, site: several sites, sites named in the paper, lesion: carcinoma, dosed 40 weeks, study length 83 weeks) 104 mg/kg/day | TD50 (rat, strain Wistar, males, in feed, site: several sites, sites named in the paper, lesion: papilloma, dosed 40 weeks, study length 83 weeks) 43.7 mg/kg/day
781 mg/kg/day: TD50 (mouse, strain CTM, females, in feed, site: thyroid gland, lesion: lymphosarcoma, dosed 40 weeks, study length 79 weeks)
644 mg/kg/day: TD50 (rat, strain Wistar, females, in feed, site: liver, lesion: hepatoma, dosed 40 weeks, study length 89 weeks)
959 mg/kg/day: TD50 (rat, strain Wistar, males, in feed, site: liver, lesion: hepatoma, dosed 40 weeks, study length 83 weeks)

ClC1=C(Cl)C2(Cl)C3C(Cl)OC(Cl)C3C1(Cl)C2(Cl)Cl (stereo not given)
inactive: carcinogen call (mouse, strain B6AKF1, females, oral dosing, site: any site (literature study), lesion: several types, types named in the paper, dosed 76 weeks, study length 76 weeks) negative | carcinogen call (mouse, strain B6AKF1, females, oral dosing, site: liver, lesion: hepatoma, dosed 76 weeks, study length 76 weeks) negative | carcinogen call (mouse, strain B6AKF1, females, oral dosing, site: lung, lesion: adenoma, dosed 76 weeks, study length 76 weeks) negative | TD50 (mouse, strain B6AKF1, males, oral dosing, site: any site (literature study), lesion: several types, types named in the paper, dosed 76 weeks, study length 76 weeks) 0.136 mg/kg/day | carcinogen call (mouse, strain B6AKF1, males, oral dosing, site: liver, lesion: hepatoma, dosed 76 weeks, study length 76 weeks) negative | TD50 (mouse, strain B6AKF1, males, oral dosing, site: lung, lesion: adenoma, dosed 76 weeks, study length 76 weeks) 0.146 mg/kg/day | TD50 (mouse, strain B6C3F1, females, oral dosing, site: any site (literature study), lesion: several types, types named in the paper, dosed 76 weeks, study length 76 weeks) 0.277 mg/kg/day | carcinogen call (mouse, strain B6C3F1, females, oral dosing, site: liver, lesion: hepatoma, dosed 76 weeks, study length 76 weeks) negative | TD50 (mouse, strain B6C3F1, females, oral dosing, site: lung, lesion: adenoma, dosed 76 weeks, study length 76 weeks) 0.571 mg/kg/day | TD50 (mouse, strain B6C3F1, males, oral dosing, site: any site (literature study), lesion: several types, types named in the paper, dosed 76 weeks, study length 76 weeks) 0.242 mg/kg/day | TD50 (mouse, strain B6C3F1, males, oral dosing, site: liver, lesion: hepatoma, dosed 76 weeks, study length 76 weeks) 0.5 mg/kg/day | TD50 (mouse, strain B6C3F1, males, oral dosing, site: lung, lesion: adenoma, dosed 76 weeks, study length 76 weeks) 0.5 mg/kg/day

CN(C)CCOC(C)(c1ccccc1)c1ccccn1 (stereo not given)
3270 mg/kg/day: TD50 (rat, strain Fischer 344, males, in feed, site: liver, lesion: hepatocellular adenoma, dosed 104 weeks, study length 104 weeks) | TD50 (rat, strain Fischer 344, males, in feed, site: liver, lesion: hepatocellular carcinoma, dosed 104 weeks, study length 104 weeks)
170 mg/kg/day: TD50 (mouse, strain B6C3F1, females, in feed, site: lung, lesion: several types, types named in the paper, dosed 104 weeks, study length 104 weeks)
3180 mg/kg/day: TD50 (mouse, strain B6C3F1, males, in feed, site: lung, lesion: alveolar/bronchiolar adenoma, dosed 65 weeks, study length 65 weeks)
271 mg/kg/day: TD50 (rat, strain Fischer 344, males, in feed, site: all sites, lesion: mononuclear-cell leukemia, dosed 104 weeks, study length 104 weeks)
77.8 mg/kg/day: TD50 (mouse, strain B6C3F1, males, in feed, site: liver, lesion: hepatocellular adenoma, dosed 65 weeks, study length 65 weeks)
inactive: carcinogen call (rat, strain Fischer 344, females, in feed, site: liver, lesion: several types, types named in the paper, dosed 104 weeks, study length 104 weeks) negative
78.7 mg/kg/day: TD50 (mouse, strain B6C3F1, females, in feed, site: lung, lesion: alveolar/bronchiolar adenoma, dosed 65 weeks, study length 65 weeks)
469 mg/kg/day: TD50 (rat, strain Fischer 344, males, in feed, site: liver, lesion: hepatocellular adenoma, dosed 65 weeks, study length 65 weeks)
active: TD50 (mouse, strain B6C3F1, females, in feed, site: liver, lesion: hepatocellular adenoma, dosed 104 weeks, study length 104 weeks) 633 mg/kg/day | TD50 (mouse, strain B6C3F1, females, in feed, site: thyroid gland, lesion: follicular-cell adenoma, dosed 104 weeks, study length 104 weeks) 740 mg/kg/day | TD50 (mouse, strain B6C3F1, females, in feed, site: thyroid gland, lesion: follicular-cell tumor, dosed 104 weeks, study length 104 weeks) 672 mg/kg/day | TD50 (mouse, strain B6C3F1, males, in feed, site: liver, lesion: hepatocellular adenoma, dosed 104 weeks, study length 104 weeks) 144 mg/kg/day | TD50 (mouse, strain B6C3F1, males, in feed, site: liver, lesion: several types, types named in the paper, dosed 104 weeks, study length 104 weeks) 125 mg/kg/day | TD50 (mouse, strain B6C3F1, males, in feed, site: thyroid gland, lesion: follicular-cell adenoma, dosed 104 weeks, study length 104 weeks) 273 mg/kg/day | TD50 (rat, strain Fischer 344, males, in feed, site: liver, lesion: several types, types named in the paper, dosed 104 weeks, study length 104 weeks) 1610 mg/kg/day

COc1ccc(C(Cl)=C(c2ccc(OC)cc2)c2ccc(OC)cc2)cc1
inactive: carcinogen call (rat, strain Charles River CD (Sprague-Dawley), females, in feed, site: liver, lesion: one or several types, types not named, dosed 104 weeks, study length 104 weeks) negative | carcinogen call (rat, strain Charles River CD (Sprague-Dawley), males, in feed, site: liver, lesion: one or several types, types not named, dosed 104 weeks, study length 104 weeks) negative

CS(=O)(=O)c1ccc([C@@H](O)[C@@H](CO)NC(=O)C(Cl)Cl)cc1
inactive: TD50 (rat, strain F344/DuCrj, females, in drinking water, site: any site (literature study), lesion: one or several types, types not named, dosed 104 weeks, study length 108 weeks) 43.2 mg/kg/day | carcinogen call (rat, strain F344/DuCrj, females, in drinking water, site: liver, lesion: one or several types, types not named, dosed 104 weeks, study length 108 weeks) negative | carcinogen call (rat, strain F344/DuCrj, males, in drinking water, site: any site (literature study), lesion: one or several types, types not named, dosed 104 weeks, study length 108 weeks) negative | TD50 (rat, strain F344/DuCrj, males, in drinking water, site: liver, lesion: hepatocellular adenoma, dosed 104 weeks, study length 108 weeks) 683 mg/kg/day

C/C=C1/C[C@@H](C)[C@](O)(CO)C(=O)OCC2=CC[N+]3([O-])CC[C@@H](OC1=O)[C@@H]23 (stereo not given in full)
active: TD50 (rat, strain Wistar, females, in drinking water, site: liver, lesion: hepatoma, dosed 103 weeks, study length 104 weeks) 1.27 mg/kg/day | TD50 (rat, strain Wistar, males, in drinking water, site: liver, lesion: hepatoma, dosed 103 weeks, study length 104 weeks) 0.499 mg/kg/day

Cc1ccc(S(=O)(=O)OCCN(C)N=O)cc1
22.3 mg/kg/day: TD50 (rat, strain Fischer 344, females, by gavage, site: liver, lesion: neoplastic nodule, dosed 121 weeks, study length 121 weeks)
11.1 mg/kg/day: TD50 (rat, strain Fischer 344, males, by gavage, site: pituitary gland, lesion: adenoma, dosed 121 weeks, study length 121 weeks) | TD50 (rat, strain Fischer 344, males, by gavage, site: testis, lesion: interstitial-cell tumor, dosed 121 weeks, study length 121 weeks)
12.6 mg/kg/day: TD50 (rat, strain Fischer 344, males, by gavage, site: liver, lesion: neoplastic nodule, dosed 121 weeks, study length 121 weeks)
active: TD50 (rat, strain Fischer 344, females, by gavage, site: liver, lesion: hemangiosarcoma, dosed 121 weeks, study length 121 weeks) 12.8 mg/kg/day | TD50 (rat, strain Fischer 344, females, by gavage, site: liver, lesion: hepatocellular carcinoma, dosed 121 weeks, study length 121 weeks) 7.55 mg/kg/day | TD50 (rat, strain Fischer 344, females, by gavage, site: liver, lesion: several types, types named in the paper, dosed 121 weeks, study length 121 weeks) 3.47 mg/kg/day | TD50 (rat, strain Fischer 344, males, by gavage, site: liver, lesion: hemangiosarcoma, dosed 121 weeks, study length 121 weeks) 11.8 mg/kg/day | TD50 (rat, strain Fischer 344, males, by gavage, site: liver, lesion: hepatocellular carcinoma, dosed 121 weeks, study length 121 weeks) 32.2 mg/kg/day | TD50 (rat, strain Fischer 344, males, by gavage, site: liver, lesion: several types, types named in the paper, dosed 121 weeks, study length 121 weeks) 7.79 mg/kg/day

O=[N+]([O-])c1ccc2c(c1)Cc1ccccc1-2
active: TD50 (rat, strain Wistar, males, in feed, site: forestomach, lesion: several types, types named in the paper, dosed 47 weeks, study length 104 weeks) 0.285 mg/kg/day | TD50 (rat, strain Wistar, males, in feed, site: forestomach, lesion: squamous-cell carcinoma, dosed 47 weeks, study length 104 weeks) 1.12 mg/kg/day | TD50 (rat, strain Wistar, males, in feed, site: kidney, lesion: cortical carcinoma, dosed 47 weeks, study length 104 weeks) 2.35 mg/kg/day | TD50 (rat, strain Wistar, males, in feed, site: kidney, lesion: several types, types named in the paper, dosed 47 weeks, study length 104 weeks) 3 mg/kg/day | TD50 (rat, strain Wistar, males, in feed, site: liver, lesion: hepatocellular carcinoma, dosed 47 weeks, study length 104 weeks) 2.1 mg/kg/day

Brc1cc(Br)c(-c2c(Br)c(Br)c(Br)c(Br)c2Br)c(Br)c1Br
active: TD50 (mouse, strain B6C3F1, females, in feed, site: liver, lesion: hepatocellular carcinoma, dosed 78 weeks, study length 78 weeks) 13.7 mg/kg/day | TD50 (mouse, strain B6C3F1, females, in feed, site: liver, lesion: neoplastic nodule, dosed 78 weeks, study length 78 weeks) 4.89 mg/kg/day | TD50 (mouse, strain B6C3F1, males, in feed, site: liver, lesion: hepatoblastoma, dosed 78 weeks, study length 78 weeks) 35.4 mg/kg/day | TD50 (mouse, strain B6C3F1, males, in feed, site: liver, lesion: hepatocellular carcinoma, dosed 78 weeks, study length 78 weeks) 3.44 mg/kg/day | TD50 (mouse, strain B6C3F1, males, in feed, site: liver, lesion: neoplastic nodule, dosed 78 weeks, study length 78 weeks) 2.86 mg/kg/day
2.07 mg/kg/day: TD50 (mouse, strain B6C3F1, males, in feed, site: any site (literature study), lesion: several types, types named in the paper, dosed 78 weeks, study length 78 weeks)
4.9 mg/kg/day: TD50 (mouse, strain B6C3F1, females, in feed, site: any site (literature study), lesion: several types, types named in the paper, dosed 78 weeks, study length 78 weeks)
